Data on 17 molecules can be found in US5482960A, “Nonpeptide endothelin antagonists” (Warner-Lambert Company, priority 1994, dated 1996).

The target of one assay is T1, recombinant human ETA R (Homo sapiens, UniProt P25101).
T1 construct: expressed in transfected cells; host or cells: Ltk- cells (membranes)
T1 sequence (P25101 21-427): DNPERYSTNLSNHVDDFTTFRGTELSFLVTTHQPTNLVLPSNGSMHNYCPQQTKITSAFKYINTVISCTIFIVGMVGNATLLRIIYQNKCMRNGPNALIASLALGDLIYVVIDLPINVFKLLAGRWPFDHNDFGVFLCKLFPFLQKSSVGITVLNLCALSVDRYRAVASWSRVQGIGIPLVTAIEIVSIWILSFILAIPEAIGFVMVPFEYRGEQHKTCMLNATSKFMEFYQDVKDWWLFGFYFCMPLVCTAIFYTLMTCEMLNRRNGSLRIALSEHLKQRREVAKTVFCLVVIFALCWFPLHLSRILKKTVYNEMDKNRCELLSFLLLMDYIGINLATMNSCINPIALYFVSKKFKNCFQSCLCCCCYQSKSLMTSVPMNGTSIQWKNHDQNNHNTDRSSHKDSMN
Format: binding. The conditions noted are these: [125I]-ET-1 40 pM, 2 hours at 37° C., Ltk- cells, read-out: HERBA-A IC50. The protocol:
(§1) Membranes were prepared from cultured cells by lysing cells in cold lysis buffer (5 mM HEPES, 2 mM EDTA, pH 7.4) and homogenizing with a Dounce "A" homogenizer. The homogenate was centrifuged at 30,000×g for 20 min at 4° C. […] Radioligand and competing ligands were prepared in binding buffer containing 20 mM Tris, 2 mM EDTA, and 0.1% BSA.

Another assay concerns the target T2, recombinant human ETB R (Homo sapiens, UniProt P24530).
T2 construct: expressed in transfected cells; host or cells: CHO-K1 cells (membranes)
T2 sequence (P24530 27-442): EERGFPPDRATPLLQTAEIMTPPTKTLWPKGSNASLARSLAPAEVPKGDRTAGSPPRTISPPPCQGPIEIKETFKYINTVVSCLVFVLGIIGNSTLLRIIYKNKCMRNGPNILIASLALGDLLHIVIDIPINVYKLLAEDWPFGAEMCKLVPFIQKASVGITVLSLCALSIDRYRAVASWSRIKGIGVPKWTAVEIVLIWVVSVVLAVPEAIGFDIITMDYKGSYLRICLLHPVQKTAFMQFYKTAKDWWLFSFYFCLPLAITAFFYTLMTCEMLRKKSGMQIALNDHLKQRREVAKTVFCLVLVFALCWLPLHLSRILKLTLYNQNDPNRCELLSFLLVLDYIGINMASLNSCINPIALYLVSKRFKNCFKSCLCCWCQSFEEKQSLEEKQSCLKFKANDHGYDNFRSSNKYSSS
Format: binding. As to conditions: [125I]-ET-1 40 pM, 2 hours at 37° C., CHO-K1 cells, read-out: HERBA-B IC50. As to the method: as §1

Assay [1] has as its target T3, ETA (rabbit renal artery vascular smooth muscle cells) (Oryctolagus cuniculus, UniProt A5A8K3).
T3 construct: rabbit renal artery vascular smooth muscle cells (ERBA-A); endogenous in cells; host or cells: cultured rabbit renal artery vascular smooth muscle cells (membranes)
T3 sequence (A5A8K3 21-427): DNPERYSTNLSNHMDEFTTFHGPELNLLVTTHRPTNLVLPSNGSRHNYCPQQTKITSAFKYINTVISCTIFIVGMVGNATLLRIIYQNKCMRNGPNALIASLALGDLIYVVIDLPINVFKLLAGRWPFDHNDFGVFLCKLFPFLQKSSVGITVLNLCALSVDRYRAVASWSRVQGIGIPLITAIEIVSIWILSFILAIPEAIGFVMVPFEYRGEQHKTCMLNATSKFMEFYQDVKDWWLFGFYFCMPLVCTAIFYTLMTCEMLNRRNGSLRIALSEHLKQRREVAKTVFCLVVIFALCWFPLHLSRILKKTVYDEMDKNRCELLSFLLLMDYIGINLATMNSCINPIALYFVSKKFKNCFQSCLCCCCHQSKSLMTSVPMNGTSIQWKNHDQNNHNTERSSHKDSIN
Format: binding. The conditions noted are these: [125I]-ET-1 40 pM, 2 hours at 37° C.; read-out: ERBA-A IC50 (converted). The protocol:
The compounds of Formula I are valuable antagonists of endothelin. […] Membranes were prepared from cultured cells by lysing cells in cold lysis buffer (5 mM HEPES, 2 mM EDTA, pH 7.4) and homogenizing with a Dounce "A" homogenizer. The homogenate was centrifuged at 30,000×g for 20 min at 4° C. […] Radioligand and competing ligands were prepared in binding buffer containing 20 mM Tris, 2 mM EDTA, and 0.1% BSA. Competing binding assays were initiated by combining membranes, [125I]-ET-1 (40 pM) and the competing ligand in a final volume of 250 uL and incubating for 2 hours at 37° C.

Assay [2] deals with T4, rabbit femoral artery (ETA) (Oryctolagus cuniculus, UniProt A5A8K3).
T4 construct: Femoral and pulmonary arteries were isolated, cleaned of connective tissue, and cut into 4-mm rings; from tissue; host or cells: rabbit femoral artery rings, endothelium denuded
T4 sequence (A5A8K3 21-427): T3 sequence (A5A8K3 21-427)
Kind of assay: In vitro antagonism of ET-1 stimulated vasoconstriction (VERA-A) in the rabbit femoral artery (ETA). Format: cell-based. The protocol:
(§2) Male New Zealand rabbits were killed by cervical dislocation and exsanguination. Femoral and pulmonary arteries were isolated, cleaned of connective tissue, and cut into 4-mm rings. The endothelium was denuded by placing the rings over hypodermic tubing (32 gauge for femoral rings and 28 gauge for pulmonary rings, Small Parts, Inc, Miami, Fla.) and gently rolling them. […] Resting tension was adjusted to 3.0 g for femoral and 4.0 g pulmonary arteries; the rings were left for 90 minutes to equilibrate.

Assay [3] deals with T5, rabbit pulmonary artery (ETB) (Oryctolagus cuniculus, UniProt Q9N0W7).
T5 construct: Femoral and pulmonary arteries were isolated, cleaned of connective tissue, and cut into 4-mm rings; from tissue; host or cells: rabbit pulmonary artery rings, endothelium denuded
T5 sequence (Q9N0W7 27-441): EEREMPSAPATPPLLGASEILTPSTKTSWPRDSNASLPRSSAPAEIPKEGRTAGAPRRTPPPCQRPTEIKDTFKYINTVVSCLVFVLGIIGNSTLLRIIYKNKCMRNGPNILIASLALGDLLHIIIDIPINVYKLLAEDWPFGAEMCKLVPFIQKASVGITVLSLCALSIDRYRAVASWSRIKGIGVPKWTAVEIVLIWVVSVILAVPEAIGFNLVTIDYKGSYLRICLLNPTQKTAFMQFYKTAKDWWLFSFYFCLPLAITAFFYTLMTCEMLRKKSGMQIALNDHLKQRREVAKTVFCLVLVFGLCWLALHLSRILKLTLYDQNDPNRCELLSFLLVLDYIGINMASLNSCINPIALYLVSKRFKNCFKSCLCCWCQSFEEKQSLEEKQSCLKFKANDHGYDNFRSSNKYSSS
Briefly: Antagonism of sarafotoxin 6c stimulated vasoconstriction in the rabbit pulmonary artery (ETB) (VERA-B). The format is cell-based. The protocol:
as §2

For orientation: IC50 means the point on the concentration scale where inhibition reaches its midpoint.

Consider `COc1cccc(Sc2c(C(=O)O)n(Cc3ccc4c(c3)OCO4)c3cc(OC)c(OCc4ccccc4)cc23)c1` [Example 13, 1-Benzo[1,3]dioxol-5-ylmethyl-5-benzyloxy-6-methoxy-3-(3-methoxy-phenylsulfanyl)-1H-indole-2-carboxylic acid], for which the IC50 on recombinant human ETA R stood at 81 nM; on recombinant human ETB R it was 690 nM.

`COc1cccc(Sc2c(C(=O)O)n(Cc3ccccc3)c3ccccc23)c1` [Example 4, 1-Benzyl-3-(3-methoxy-phenylsulfanyl)-1H-indole-2carboxylic acid]: the IC50 in assay [1] is 7300 nM; on recombinant human ETA R it was 4600 nM; on recombinant human ETB R, 1500 nM.

`COc1cccc(Sc2c(C(=O)O)n(Cc3ccc(OC)cc3OCC(=O)O)c3cc(OC)c(OC)cc23)c1` [Example 16, 1-(2-Carboxymethoxy-4-methoxy-benzyl)-5,6-dimethoxy-3-(3-methoxy-phenylsulfanyl)-1H-indole-2carboxylic acid]: the IC50 came out at 480 nM at recombinant human ETA R and 1200 nM at recombinant human ETB R.

Turning to `COc1cccc(Sc2c(C(=O)O)n(Cc3ccc4c(c3)OCO4)c3cc4c(cc23)OCO4)c1` [Example 6, 5-Benzo[1,3]dioxol-5-ylmethyl-7-(3-methoxy-phenylsulfanyl)-5H-[1,3]dioxolo[4,5-f]indole-6-carboxylic acid], the IC50 on recombinant human ETA R came to 84 nM; on recombinant human ETB R it was 710 nM.

As to `COc1cccc(Sc2c(C(=O)O)n(Cc3ccc4c(c3)OCO4)c3ccccc23)c1` [Example 3, 1-Benzo[1,3]dioxol-5-ylmethyl-3-(3-methoxy-phenylsulfanyl)-1H-indole-2-carboxylic acid], the IC50 in assay [1] was 500 nM; at recombinant human ETA R, 90 nM; on recombinant human ETB R, 7400 nM.

As to `COc1cc2c(Sc3cc(OC)c(OC)c(OC)c3)c(C(=O)O)n(Cc3ccc4c(c3)OCO4)c2cc1OC` [Example 14, 1-Benzo[1,3]dioxol-5-ylmethyl-5,6-dimethoxy-3-(3,4,5-trimethoxy-phenylsulfanyl)-1H-indole-2-carboxylic acid], the results for the half-inhibitory concentration (IC50) in assay [2] and in assay [3] were 31.6 nM and 3160 nM, respectively.

For the molecule `COc1cccc(Sc2c(C(=O)O)n(Cc3ccc4c(c3)OCO4)c3cc(OC)c(OC)cc23)c1` [Example 2], the IC50 in assay [1] is 30 nM; on recombinant human ETB R, 1100 nM; in assay [2], 100 nM.

Turning to `COc1ccc(Cn2c(C(=O)O)c(Sc3cccc(OC)c3)c3cc(OC)c(OC)cc32)cc1` [Example 12, 5,6-Dimethoxy-1-(4-methoxy-benzyl)-3-(3-methoxy-phenylsulfanyl)-1H-indole-2-carboxylic acid], the IC50 at recombinant human ETA R was found to be 160 nM; on recombinant human ETB R, 870 nM.

For `COc1cccc(Sc2c(C(=O)O)n(Cc3cc(OC)c4c(c3)OCO4)c3cc(OC)c(OC)cc23)c1` [Example 11, 5,6-Dimethoxy-1-(7-methoxy-benzo[1,3]dioxol-5-ylmethyl)-3-(3-methoxy-phenylsulfanyl)-1H-indole-2carboxylic acid], the IC50 at recombinant human ETA R was 58 nM; at recombinant human ETB R, 1100 nM.

Take `COc1ccc(Sc2c(C(=O)O)n(Cc3ccc4c(c3)OCO4)c3cc4c(cc23)OCO4)cc1OC` [Example 8, 5-Benzo [1,3]dioxo1-5-ylmethyl-7-(3,4-dimethoxyphenylsulfanyl)-5H-[1,3]dioxolo[4,5-f]indole-6-carboxylicacid]: the IC50 was 39 nM at recombinant human ETA R, 170 nM at recombinant human ETB R, 316 nM in assay [2] and 316 nM in assay [3].

With `COc1ccc(Sc2c(C(=O)O)n(Cc3cc(OC)c4c(c3)OCO4)c3cc4c(cc23)OCO4)cc1OC` [Example 9, 7-(3,4-Dimethoxy-phenylsulfanyl)-5-(7-methoxy-benzo[1,3]dioxol-5-ylmethyl)-5H-[1,3]dioxolo[4,5-f]indole-6-carboxylic acid], the IC50 on recombinant human ETA R stood at 170 nM; on recombinant human ETB R, 420 nM.

Consider `O=C(O)c1c(Sc2ccc3c(c2)OCO3)c2ccccc2n1Cc1ccc2c(c1)OCO2` [Example 5, 1-Benzo[1,3]dioxol-5-ylmethyl-3-(benzo[1,3]dioxol-5-ylsulfanyl)-1H-indole-2-carboxylic acid], for which the results for the IC50 (in assay [1]; on recombinant human ETA R; on recombinant human ETB R) were 570 nM, 380 nM and 4500 nM, respectively.

`COc1cccc(Sc2c(C(=O)O)n(Cc3cc(OC)c4c(c3)OCO4)c3cc4c(cc23)OCO4)c1` [Example 7, 5-(7-Methoxy-benzo[1,3]dioxol-5-ylmethyl)-7-(3-methoxy-phenylsulfanyl)-5H-[1,3]dioxolo[4,5-f]indole-6carboxylic acid]: the half-maximal inhibitory concentration (IC50) on recombinant human ETA R was 380 nM; on recombinant human ETB R, 2900 nM.

As for `COc1cc2c(Sc3ccc4c(c3)OCO4)c(C(=O)O)n(Cc3ccc4c(c3)OCO4)c2cc1OC` [Example 17, 1-Benzo[1,3]dioxol-5-ylmethyl-3-(benzo[1,3]dioxol-5-ylsulfanyl)-5,6-dimethoxy-1H-indole-2-carboxylic acid], the IC50 in assay [1] is 631 nM; in assay [2] it was 50.1 nM.

For the molecule `COc1cc2c(Sc3ccc4c(c3)OCO4)c(C(=O)O)n(Cc3ccc4c(c3)OCO4)c2cc1OCc1ccccc1` [Example 15, 1-Benzo[1,3]dioxol-5-ylmethyl-3-(benzo[1,3]dioxol-5-ylsulfanyl)-6-benzyloxy-5-methoxy-1H-indole-2-carboxylic acid], the IC50 at recombinant human ETA R was determined as 690 nM; on recombinant human ETB R it was 53 nM.

`O=C(O)c1c(Sc2ccccc2)c2ccccc2n1-c1ccc2c(c1)OCO2` [Example 1, 1-Benzo-[1,3]dioxol-5-yl-3-phenylsulfanyl-1H-indole-2-carboxylic acid]: the IC50 in assay [1] was 1900 nM; on recombinant human ETA R it was 3200 nM; at recombinant human ETB R, 6500 nM.

Take `CCCOc1ccc2c(Sc3cccc(OC)c3)c(C(=O)O)n(Cc3ccc4c(c3)OCO4)c2c1` [Example 10, 1-Benzo[1,3]dioxol-5-ylmethyl-3-(3-methoxy-phenylsulfanyl)-6-propoxy-1H-indole-2-carboxylic acid]: the values for the IC50 on recombinant human ETA R and at recombinant human ETB R were 590 nM and 6700 nM, respectively.
